pIC50: −log10 of the molar value. Square brackets hold non-standard residues; d marks the D form. Peptide text beside a SMILES is read from it.
How the values were obtained:
Plasmodium falciparum [1] = assay: Antiplasmodial activity against sorbitol-synchronized post ring stage plasmodium falciparum 3D7 assessed as inhibition of parasite growth incubated for 72 to 96 hrs by parasite susceptibility based microplate reader assay; type: functional, organism-based
Plasmodium falciparum [2] = assay: Antiplasmodial activity against sorbitol-synchronized post ring stage chloroquine, mefloquine and pyrimethamine resistant plasmodium falciparum Dd2 assessed as inhibition of parasite growth incubated for 72 to 96 hrs by parasite susceptibility based microplate reader assay; type: functional, organism-based
[3] = Hemolytic activity in human RBC assessed as hemolysis at 0.39 to 12.8 uM incubated for 72 hrs by microplate reader assay; type: toxicity, cell-based; conditions: erythrocyte, dose 0.39-12.8 µM
[4] = Fold resistance,ratio of IC50 for antiplasmodial activity against chloroquine, mefloquine and pyrimethamine resistant plasmodium falciparum Dd2 to IC50 for antiplasmodial activity against plasmodium falciparum 3D7; type: functional

| SMILES | pIC50 (Plasmodium falciparum [1]) | pIC50 (Plasmodium falciparum [2]) | Activity [3] | Ratio [4] |
| --- | --- | --- | --- | --- |
| CCC[C@@H]1CC(C(=O)N[C@@H](C2O[C@H](SC)[C@H](O)[C@@H](O)[C@H]2O)[C@@H](C)Nc2c(NCCN(CC)CCCC(C)Nc3ccnc4cc(Cl)ccc34)c(=O)c2=O)N(C)C1 (some centres not stated) | 6.89 | 5.99 | Non-Toxic | 7.8 |
| CCC[C@@H]1C[C@@H](C(=O)N[C@@H]([C@H]2O[C@H](SC)[C@H](O)[C@@H](O)[C@H]2O)[C@H](C)Cl)N(C)C1 [CLINDAMYCIN] | 8.06 |  |  |  |
| CCN(CCN)CCCC(C)Nc1ccnc2cc(Cl)ccc12 (configuration not stated) | 7.78 | 6.55 | Non-Toxic | 17.1 |
| CCN(CCCC(C)Nc1ccnc2cc(Cl)ccc12)CCNc1c(NCCN(CC)CCCC(C)Nc2ccnc3cc(Cl)ccc23)c(=O)c1=O (configuration not stated) | 7.50 | 7.09 | Non-Toxic | 2.6 |
| CCOc1c(NCCN(CC)CCCC(C)Nc2ccnc3cc(Cl)ccc23)c(=O)c1=O (configuration not stated) | 7.20 | 5.98 | Non-Toxic | 16.6 |
| CC[C@@H](C)[C@H]1NC(=O)[C@@H](C)NC(=O)[C@H](Cc2ccccc2)NC(=O)[C@@H](CC(C)C)NC(=O)[C@@H](C(C)C)NC(=O)[C@H](Cc2ccccc2)NC(=O)[C@@H]([C@H](C)CC)NC1=O (cyclo(F[dA][dI][dI]F[dV][dL])) | 5.88 | 6.03 |  | 0.7 |
| CCN(CCCC(C)Nc1ccnc2cc(Cl)ccc12)CCNc1c(NCCCC[C@H](NC(C)=O)C(=O)OC)c(=O)c1=O (some centres not stated) | 6.65 | 6.17 | Non-Toxic | 3 |
| CCC[C@@H]1C[C@@H](C(=O)N[C@@H]([C@H]2O[C@H](SC)[C@H](O)[C@@H](O)[C@H]2O)[C@@H](C)N=[N+]=[N-])N(C)C1 | 7.53 | 7.54 | Non-Toxic | 1 |
| CCN(CCCC(C)Nc1ccnc2cc(Cl)ccc12)CCN=[N+]=[N-] (configuration not stated) | 8.55 | 7.74 | Non-Toxic | 6.5 |

— ChEMBL document CHEMBL5223185, “Squaramide Tethered Clindamycin, Chloroquine, and Mortiamide Hybrids: Design, Synthesis, and Antimalarial Activity” (ACS Med Chem Lett, 2023)
